# Source: EP0048827A1, “Substituted 2,4-dichlorophenyl-imidazolyl-vinyl ketones, processes for their preparation and antimicrobial agents containing these compounds” (BAYER AG, priority 1980, dated 1982)
# System: Dermatophyten und Schimmelpilze; Hefen
# Experiment: Antimycotic in-vitro activity, serial dilution test
# Assay type: cell-based
# Settings: 28°C, 24 h for yeasts, 96 h for dermatophytes and moulds, compared with the prior-art compound (A)
# Method: Die in-vitro-Prüfung wurde im Reihenverdünnungstest mit Keiminokula von durchschnittlich […] Substrat durchgeführt. Als Nährmedium dienten • a) für Dermatophyten und Schimmelpilze: Sabourand's milieu d'epresive • b) für Hefen: Isotonic Sensitest-Broth von Oxid.
# Die Bebrütungstemperatur betrug 28°C; Bebrütungsdauer war 24 Stunden bei Hefen und 96 Stunden bei Dermatophyten und Schimmelpilzen.
row,Compound,antimykotische Wirkung
1,"1-(2,4-Dichlorphenyl)-2-Eimidazol-1-yl)-3-(methylcyclohexen-3-yl)-2-propen-l-on [Beispiel 1]",bessere antimykotische Wirkung als die aus dem Stand der Technik bekannte Verbindung (A)
2,CCC(C=C(C(=O)c1ccc(Cl)cc1Cl)n1ccnc1)CC [Beispiel 5],bessere antimykotische Wirkung als die aus dem Stand der Technik bekannte Verbindung (A)
3,CCC(C)C=C(C(=O)c1ccc(Cl)cc1Cl)n1ccnc1 (centres unmarked) [Beispiel 6],bessere antimykotische Wirkung als die aus dem Stand der Technik bekannte Verbindung (A)
4,CCCC(C)C=C(C(=O)c1ccc(Cl)cc1Cl)n1ccnc1 (centres unmarked) [Beispiel 7],bessere antimykotische Wirkung als die aus dem Stand der Technik bekannte Verbindung (A)
5,CCCCC(C=C(C(=O)c1ccc(Cl)cc1Cl)n1ccnc1)CC (centres unmarked) [Beispiel 9],bessere antimykotische Wirkung als die aus dem Stand der Technik bekannte Verbindung (A)
